Experimental data as given in patent US20240350454A1, “BACTERIAL EFFLUX PUMP INHIBITORS AND METHODS OF USE” (THE REGENTS OF THE UNIVERSITY OF COLORADO, priority 2021, published 2024).
Peptide text beside a SMILES is read from it. * marks the point of attachment. βNA = c1ccc2cc(N*)ccc2c1

Legend:
Type in all cases: cell-based
[1] = system: S. enterica serovar Typhimurium SL1344 sifB::gfp in RAW264.7 macrophages; assay: SAFIRE assay, intracellular bacterial load in macrophages; settings: Salmonella enterica
Procedure: The following experiments were performed using the SAFIRE assay described in U.S. Publication 2020/0022961, which is incorporated by reference in its entirety for all purposes. SAFIRE (Screen for Anti-infectives using Fluorescence microscopy of IntracellulaR Enterobacteriaceae) uses cell culture as a surrogate to identify compounds that prevent intracellular replication of a model Gram-negative bacterial human pathogen. The method identifies compounds that prevent bacterial growth in broth culture and compounds that decrease the load of Gram-negative bacteria inside of macrophages at concentrations≤10 μM but have no effect on bacterial growth in standard Mueller Hinton broth (MHB) at 100 μM. Thus, SAFIRE enables the discovery of compounds that are effective against Gram-negative bacteria in host cells and in whole animals, whether or not they are antibacterial in broth.
(§1) The wild-type S. enterica serovar Typhimurium strain, SL1344, was initially isolated from the blood of an infected calf. For screening and validation in macrophages, SL1344 sifB::gfp was grown in Luria-Bertani Broth (LB) with 30 μg/ml streptomycin and 30 μg/ml kanamycin to saturation overnight, diluted to an OD of 0.001 and frozen in 100 μL aliquots in 20% glycerol at −80° C. Prior to infection, aliquots were grown in 5 mL cultures of LB with 30 μg/ml streptomycin and 30 μg/ml kanamycin for 18 hours at 37° C. with aeration. Bacterial strains were routinely grown in LB with antibiotics: 30 μg/ml streptomycin, 30 μg/ml kanamycin, 50 μg/ml ampicillin, 10 μg/ml tetracycline, and/or 1.15 μg/ml meropenem. The acrAB::kan and macAB::kan strains were constructed according to known methods. S. enterica subsp. enterica, serovar Typhimurium strain S10801, NR-22067 is a multidrug resistant isolate from a calf with sepsis. This strain and others as indicated were obtained through BEI resources, NIAID, NIH.
(§2) Murine macrophage-like RAW 264.7 cells and HeLa human epithelial cells were obtained from the American Type Tissue Collection. BMDMs were isolated as previously described. Briefly, marrow was flushed from the femurs of 1- to 4-month-old 129SvEvTac mice (Taconic Laboratories) bred in-house. Mononuclear cells were separated using Histopaque-1083 (Sigma), washed, and directly seeded into assay plates at 1×10^5 cells/ml in complete medium supplemented with 35% conditioned media from 3T3 cells expressing MCSF. Media were refreshed three days later. After 1 week, media were replaced with 100 μL fresh media and cells were infected as described below. All three types of cells were grown in DMEM high glucose (Sigma) supplemented with 10% fetal bovine serum, 2 mM L-glutamine, 1 mM sodium pyruvate, 10 mM HEPES, and 50 μMβ-mercaptoethanol. Cells were maintained in a 5% CO2 humidified atmosphere at 37° C. For screening, frozen aliquots of RAW 264.7 were thawed and allowed to expand for three days prior to seeding; other experiments were performed with cultures between passages four and 20.
SAFIRE—RAW264.7 macrophages (7×103 in 40 μL or 5×104 in 100 μL) were seeded, respectively, in 384- or 96-well black-walled glass-bottomed plates (Brooks Automation). Twenty four hours post-seeding, bacteria in 20 or 50 μL PBS were added to a final concentration of 1×10^7 CFU/mL, conditions yielding infection of approximately 70% of macrophages at 18 hours post-infection with minimal macrophage toxicity. The sifB::gfp bacterial reporter strain was used to minimize green signal from extracellular bacteria. […] At two hours post-infection, 200 or 500 nL compound was added using a pin tool (CyBio) to yield a final concentration of 25 μM. Each assay plate included rifampicin and DMSO controls. In some experiments, media were removed and replaced with fresh media containing 40 μg/mL gentamicin and increasing concentrations of the compounds of the disclosure. […]

RAW264.7 macrophages = settings: mouse, 16 h
Text: as §2
SAFIRE—RAW264.7 macrophages (7×103 in 40 μL or 5×104 in 100 μL) were seeded, respectively, in 384- or 96-well black-walled glass-bottomed plates (Brooks Automation). Twenty four hours post-seeding, bacteria in 20 or 50 μL PBS were added to a final concentration of 1×10^7 CFU/mL, conditions yielding infection of approximately 70% of macrophages at 18 hours post-infection with minimal macrophage toxicity. The sifB::gfp bacterial reporter strain was used to minimize green signal from extracellular bacteria. […] At two hours post-infection, 200 or 500 nL compound was added using a pin tool (CyBio) to yield a final concentration of 25 μM. Each assay plate included rifampicin and DMSO controls. In some experiments, media were removed and replaced with fresh media containing 40 μg/mL gentamicin and increasing concentrations of the compounds of the disclosure. At 17.5 hours post-infection, PBS containing MitoTracker Red CMXRos (Life Technologies) was added to a final concentration of 300 nM or 100 nM, for 384- or 96-well, respectively. Thirty minutes later, 16% paraformaldehyde was added to a final concentration of […] and incubated at room temperature for 15 minutes. Wells were washed twice with PBS and stained for 20 minutes with 1 μMDAPI; wells were washed twice and stored in 90% glycerol in PBS until imaging. The Z′-factor of the screening platform was 0.59 and 0.48 in 96-well and 384-well plates, respectively, within published ranges for complicated cell-based screens.
In addition, toxicity was measured according the following procedure: 1) analyzing macrophage cell morphology; and 2) using MATLAB to count cells (cells that lift up and float after treatment are not within the appropriate Z plane to be counted, and thus are considered dead). If 70% of the cells are adherent (as measured by comparing the number of cells before and after treatment), the compound is considered not toxic. Compounds that pass #1 and #2 above are considered to have a toxicity “>50 μM”. […]

E. Cloacae MB315 = assay: PMB MIC with selected compound in MHB; settings: for MIC: Enterobacter cloacae, selected compound 50 μg/mL in MHB
Procedure: (§3) MIC for the antibiotic alone (i.e., in the absence of the disclosed compounds) is provided in the first row labeled “None”. […] […] At this concentration (50 μg/mL), the compounds of the disclosure lacked intrinsic antibacterial activity but a significant improvement in efficacy was still observed. Thus, the compounds of the disclosure may be used to potentiate the activity of antibiotics that have lost their efficacy due to efflux.

[2] = system: S. enterica sp. Enterica S10801; assay: Doxycycline MIC with selected compound in MHB
Procedure: as §1
MIC for the antibiotic alone (i.e., in the absence of the disclosed compounds) is provided in the first row labeled “None”. […] At this concentration (50 μg/mL), the compounds of the disclosure lacked intrinsic antibacterial activity but a significant improvement in efficacy was still observed. […]

E. coli BAA-2340 [3] = assay: Doxycycline MIC with selected compound in MHB
Text: (§4) MIC for the antibiotic alone (i.e., in the absence of the disclosed compounds) is provided in the first row labeled “None”. […] […] […] Thus, the compounds of the disclosure may be used to potentiate the activity of antibiotics that have lost their efficacy due to efflux.

K. pneumoniae BAA-1705 [4] = assay: Doxycycline MIC with selected compound in MHB
Text: as §4

K. pneumoniae BAA-2342 [5] = assay: Doxycycline MIC with selected compound in MHB
Text: as §4

E. cloacae BAA-2341 [6] = assay: Doxycycline MIC with selected compound in MHB
Procedure: as §3

E. coli BAA-2340 [7] = assay: Ciprofloxacin MIC with selected compound in MHB; settings: comparator at 25 μg/mL in MHB
K. pneumoniae BAA-2342 [8] = assay: Ciprofloxacin MIC with selected compound in MHB; settings: comparator at 25 μg/mL in MHB
K. pneumoniae BAA-1705 [9] = assay: Ciprofloxacin MIC with selected compound in MHB; settings: comparator at 25 μg/mL in MHB
Procedure: as §3

E. cloacae BAA-2341 [10] = assay: Ciprofloxacin MIC with selected compound in MHB; settings: comparator at 25 μg/mL in MHB
E. coli BAA-2340 [11] = assay: Chloramphenicol MIC with selected compound in MHB; settings: comparator at 25 μg/mL in MHB
Procedure: as §3

[12] = system: P. aeruginosa Focus MB0477; assay: Chloramphenicol MIC with selected compound in MHB; settings: comparator at 25 μg/mL in MHB
Procedure: as §3

A. baumannii MB306 = assay: Chloramphenicol MIC with selected compound in MHB; settings: comparator at 25 μg/mL in MHB
Text: as §4

A. baumannii MB309 = assay: Chloramphenicol MIC with selected compound in MHB; settings: comparator at 25 μg/mL in MHB
Text: as §4

E. cloacae BAA-2341 [13] = assay: Chloramphenicol MIC with selected compound in MHB; settings: comparator at 25 μg/mL in MHB
Text: as §4

K. pneumoniae BAA-2342 [14] = assay: Chloramphenicol MIC with selected compound in MHB; settings: comparator at 25 μg/mL in MHB
Text: as §4

SMILES: NCC1CCN(CC(O)COc2cc(Cl)cc(Cl)c2)C1 (stereo not shown) [Compound 10]
- IC50 [1]: < 1000 nM
- Toxicity (RAW264.7 macrophages): <50 but >25 μM
- MIC (E. Cloacae MB315): 32 µg/mL

SMILES: COCCCN(C)C1CCN(CC(O)COc2ccc(Cl)c(Cl)c2)CC1 (stereo not shown) [Compound 11]
- IC50 [1]: < 1000 nM
- Toxicity (RAW264.7 macrophages): >50 µM

SMILES: NC1CCN(CC(O)COc2cccc(C(F)(F)F)c2)CC1 (stereo not shown) [Compound 12]
- IC50 [1]: < 1000 nM
- Toxicity (RAW264.7 macrophages): >50 µM

SMILES: N[C@@H]1CCN(C[C@H](O)COc2ccc(Cl)c(Cl)c2)C1 [Compound 13]
- IC50 [1]: < 1000 nM
- Toxicity (RAW264.7 macrophages): >50 µM

SMILES: N[C@H]1CCN(C[C@H](O)COc2ccc(Cl)c(Cl)c2)C1 [Compound 14]
- IC50 [1]: > 1000 nM
- Toxicity (RAW264.7 macrophages): >50 µM

SMILES: N[C@@H]1CCN(C[C@@H](O)COc2ccc(Cl)c(Cl)c2)C1 [Compound 15]
- IC50 [1]: < 1000 nM
- Toxicity (RAW264.7 macrophages): >50 µM

SMILES: N[C@H]1CCN(C[C@@H](O)COc2ccc(Cl)c(Cl)c2)C1 [Compound 16]
- IC50 [1]: < 1000 nM
- Toxicity (RAW264.7 macrophages): >50 µM
- MIC (E. Cloacae MB315): 32 µg/mL

SMILES: CC1(N)CCN(CC(O)COc2cc(Cl)cc(Cl)c2)CC1 (stereo not shown) [Compound 17]
- IC50 [1]: < 1000 nM
- Toxicity (RAW264.7 macrophages): <25 µM
- MIC (E. Cloacae MB315): 16 µg/mL

SMILES: OC(CN[C@H]1[C@@H]2CNC[C@@H]21)COc1cc(Cl)cc(Cl)c1 (stereo partly shown) [Compound 18]
- IC50 [1]: < 1000 nM
- Toxicity (RAW264.7 macrophages): >50 µM
- MIC (E. Cloacae MB315): 1 µg/mL

SMILES: CN(CCCCN)CC(O)COc1cc(Cl)cc(Cl)c1 (stereo not shown) [Compound 19]
- IC50 [1]: < 1000 nM
- Toxicity (RAW264.7 macrophages): <50 but >25 μM
- MIC (E. Cloacae MB315): 32 µg/mL

SMILES: C[C@H]1c2cccc(O)c2C(=O)C2=C(O)[C@]3(O)C(=O)C(C(N)=O)=C(O)[C@@H](N(C)C)[C@@H]3[C@@H](O)[C@@H]21 [Doxycycline, doxycycline]
- MIC ([2]; Salmonella enterica, antibiotic alone (row None), MHB): 32 µg/mL
- MIC (E. coli BAA-2340 [3]; Escherichia coli, BAA2340, antibiotic alone (row None), MHB): 8 µg/mL
- MIC (K. pneumoniae BAA-1705 [4]; Klebsiella pneumoniae, BAA1705, antibiotic alone (row None), MHB): 4 µg/mL
- MIC (K. pneumoniae BAA-2342 [5]; Klebsiella pneumoniae, BAA2342, antibiotic alone (row None), MHB): 8 µg/mL
- MIC (E. cloacae BAA-2341 [6]; Enterobacter cloacae, BAA2341, antibiotic alone (row None), MHB): 8 µg/mL

SMILES: N=C(N)NCCC[C@H](NC(=O)[C@@H](N)Cc1ccccc1)C(=O)Nc1ccc2ccccc2c1 [PAβN] (H-Phe-Arg-βNA)
- Doxycycline MIC ([2]; comparator at 25 μg/mL in MHB): 8 µg/mL
- Doxycycline MIC (E. coli BAA-2340 [3]; comparator at 25 μg/mL in MHB): ≤1 µg/mL
- Doxycycline MIC (K. pneumoniae BAA-1705 [4]; comparator at 25 μg/mL in MHB): ≤1 µg/mL
- Doxycycline MIC (K. pneumoniae BAA-2342 [5]; comparator at 25 μg/mL in MHB): ≤1 µg/mL
- Doxycycline MIC (E. cloacae BAA-2341 [6]; comparator at 25 μg/mL in MHB): ≤1 µg/mL
- PMB MIC (E. Cloacae MB315; comparator at 25 μg/mL in MHB): 32 µg/mL
- Ciprofloxacin MIC (E. coli BAA-2340 [7]): 16 µg/mL
- Ciprofloxacin MIC (K. pneumoniae BAA-2342 [8]): 16 µg/mL
- Ciprofloxacin MIC (K. pneumoniae BAA-1705 [9]): 64 µg/mL
- Ciprofloxacin MIC (E. cloacae BAA-2341 [10]): 16 µg/mL
- Chloramphenicol MIC (E. coli BAA-2340 [11]): 8 µg/mL
- Chloramphenicol MIC [12]: 1 µg/mL
- Chloramphenicol MIC (A. baumannii MB306): 32 µg/mL
- Chloramphenicol MIC (A. baumannii MB309): 64 µg/mL
- Chloramphenicol MIC (E. cloacae BAA-2341 [13]): 2 µg/mL
- Chloramphenicol MIC (K. pneumoniae BAA-2342 [14]): 8 µg/mL
